Where two headings read alike, the source gives them in different places. One block for each compound: values may come before it. Numbered stars: 1 amine (or outer) side, 2 acyl side, 3 side chain; on linkers, the order of the positions; unused ones are H or OH. Square brackets hold non-standard residues; d marks the D form. Side chains are listed from the residue outwards. Peptide text beside a SMILES is read from it. * marks the point of attachment. γGlu = O=C(O)[C@H](CCC(=O)[*:2])N[*:1]; αMeF = C[C@](N)(Cc1ccccc1)C(=O)O; αMeK = C[C@](N)(CCCCN)C(=O)O; Lauroyl = CCCCCCCCCCCC(=O)*; AEEA = NCCOCCOCC(=O)O; Aib = CC(C)(N)C(=O)O
What was measured:
Type in all cases: cell-based
[1] = target: T1, human GLP-1 receptor (GLP-1R) (Homo sapiens, UniProt P43220); assay: cAMP assay, human GLP-1R cells
T1 construct: expressed in transfected cells; host or cells: HEK293 cells or CHO cells
T1 sequence (P43220 24-463): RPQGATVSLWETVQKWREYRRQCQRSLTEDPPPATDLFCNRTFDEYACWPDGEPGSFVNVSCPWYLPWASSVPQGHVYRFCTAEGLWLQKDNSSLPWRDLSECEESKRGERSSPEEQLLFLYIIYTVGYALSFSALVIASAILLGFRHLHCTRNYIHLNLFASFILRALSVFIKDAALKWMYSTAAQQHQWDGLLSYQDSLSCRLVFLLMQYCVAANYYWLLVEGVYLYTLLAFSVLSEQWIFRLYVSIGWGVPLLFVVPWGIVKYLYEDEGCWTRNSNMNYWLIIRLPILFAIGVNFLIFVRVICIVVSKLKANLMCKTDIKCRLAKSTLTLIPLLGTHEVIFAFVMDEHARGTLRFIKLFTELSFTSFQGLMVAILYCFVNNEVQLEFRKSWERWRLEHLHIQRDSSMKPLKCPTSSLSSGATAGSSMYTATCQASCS
In short: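 Peptide-stimulated cAMP measured by two-step HTRF after a 30 min room-temperature incubation with receptor-expressing cells (hGLP-1R, hGIPR at 1×10^5 cells/ml; hGCGR at 2×10^5 cells/ml). Duplicate dilutions; EC50 from 4-parameter logistic fit of % Delta F.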

[2] = target: T2, human glucagon receptor (GCGR) (Homo sapiens, UniProt P47871); assay: cAMP assay, human GCGR cells
T2 construct: expressed in transfected cells; host or cells: HEK293 cells or CHO cells
T2 sequence (P47871 26-477): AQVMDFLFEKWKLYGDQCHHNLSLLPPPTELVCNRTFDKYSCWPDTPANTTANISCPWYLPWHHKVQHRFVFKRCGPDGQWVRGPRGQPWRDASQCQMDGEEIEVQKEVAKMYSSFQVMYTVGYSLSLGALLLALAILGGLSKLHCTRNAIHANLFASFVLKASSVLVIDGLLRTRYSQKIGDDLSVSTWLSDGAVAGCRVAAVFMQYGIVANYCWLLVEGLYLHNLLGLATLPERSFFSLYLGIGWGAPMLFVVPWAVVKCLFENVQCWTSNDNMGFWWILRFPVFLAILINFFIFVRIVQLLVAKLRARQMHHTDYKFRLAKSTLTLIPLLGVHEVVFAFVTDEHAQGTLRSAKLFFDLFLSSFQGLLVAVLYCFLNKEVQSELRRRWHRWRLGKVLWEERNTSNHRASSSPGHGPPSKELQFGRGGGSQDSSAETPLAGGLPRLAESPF
Procedure: (§1) Sample dilutions are made in duplicate.
(§2) A frozen cryo-vial of cells expressing the receptor of interest is thawed rapidly in a water-bath, transferred to pre-warmed assay buffer and spun at 240×g for 5 minutes. Cells are re-suspended in assay buffer at a batch-dependent optimized concentration (e.g. hGCGR cells at 2×10^5 cells/ml, hGLP-1R and hGIPR cells at 1×10^5 cells/ml).
(§3) To this, 5 μL cell suspension is added and the plates incubated at room temperature for 30 minutes.
(§4) cAMP levels are measured using a commercially available cAMP dynamic 2 HTRF kit (Cisbio, Cat #62AM4PEJ), following the two step protocol as per manufacturer's recommendations. In brief; anti-cAMP cryptate (donor fluorophore) and cAMP-d2 (acceptor fluorophore) are made up separately by diluting each 1/20 in conjugate & lysis buffer provided in the kit. 5 μL anti-cAMP cryptate is added to wells of the assay plate, and 5 μL cAMP-d2 is added to wells except non-specific binding (NSB) wells, to which conjugate and lysis buffer are added. […] EC50 values of the synthetic peptides determined in cAMP assays are then determined.
(§5) Data is transformed to % Delta F as described in the manufacturer's guidelines and analyzed by 4-parameter logistic fit to determine EC50 values. […] To compare the balance of activities at the GLP-1R and GCGR between different peptides and across different conditions, these can be correlated, where the EC50's are related to those of comparator peptides.

[3] = target: T3, human glucose-dependent insulinotropic peptide receptor (GIPR) (Homo sapiens, UniProt P48546); assay: cAMP assay, human GIPR cells
T3 construct: expressed in transfected cells; host or cells: HEK293 cells or CHO cells
T3 sequence (P48546 22-466): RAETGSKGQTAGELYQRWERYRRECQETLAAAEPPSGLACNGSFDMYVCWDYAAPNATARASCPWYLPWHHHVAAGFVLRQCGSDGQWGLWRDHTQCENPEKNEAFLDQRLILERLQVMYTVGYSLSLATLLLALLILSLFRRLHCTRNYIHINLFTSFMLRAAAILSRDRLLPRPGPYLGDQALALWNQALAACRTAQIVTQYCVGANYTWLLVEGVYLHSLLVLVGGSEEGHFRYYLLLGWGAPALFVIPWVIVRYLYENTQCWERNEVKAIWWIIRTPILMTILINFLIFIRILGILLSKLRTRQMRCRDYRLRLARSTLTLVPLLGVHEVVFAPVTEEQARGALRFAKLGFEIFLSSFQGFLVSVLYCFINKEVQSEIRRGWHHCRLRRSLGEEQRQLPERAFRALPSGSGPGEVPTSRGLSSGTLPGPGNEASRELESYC
Procedure: as §1, §2, §3, §4, §5

- EC50 ([1]; cAMP activity, first determination (n1), read-out: Primary assay EC50 GLP-1R n1): 170 pM
- EC50 ([1]; cAMP activity, mean of n1 and n2, read-out: Mean pM GLP-1R): 125 pM
- EC50 ([1]; cAMP activity, second determination (n2), read-out: Primary assay EC50 GLP-1R n2): 77 pM
- EC50 ([2]; cAMP activity, second determination (n2), read-out: Primary assay EC50 Gluc-R): ≥ 28 nM
- EC50 ([3]; cAMP activity, first determination (n1), read-out: Primary assay EC50 GIP-R): ≥ 28 nM
- EC50 ([3]; cAMP activity, second determination (n2), read-out: Primary assay EC50 GIP-R): ≥ 28 nM
Compound: CCCCCCCCCCCCCCCCCC(=O)NCCOCCOCC(=O)NCCCC[C@H](NC(=O)[C@@H](NC(=O)[C@@H](NC(=O)[C@](C)(Cc1ccccc1)NC(=O)[C@H](C)NC(=O)[C@@H](NC(=O)[C@](C)(Cc1ccccc1)NC(=O)[C@H](CCC(=O)O)NC(=O)[C@](C)(CCCCN)NC(=O)[C@H](C)NC(=O)[C@H](C)NC(=O)[C@H](CCC(=O)O)NC(=O)CNC(=O)[C@H](CCC(=O)O)NC(=O)[C@H](CC(C)C)NC(=O)[C@](C)(Cc1ccccc1)NC(=O)[C@H](CO)NC(=O)[C@](C)(CO)NC(=O)[C@@H](NC(=O)[C@H](CC(=O)O)NC(=O)[C@H](CO)NC(=O)[C@@H](NC(=O)[C@](C)(Cc1ccccc1)NC(=O)[C@H](CO)NC(=O)CNC(=O)[C@H](CCC(=O)O)NC(=O)C(C)(C)NC(=O)[C@@H](N)Cc1c[nH]cn1)[C@@H](C)O)C(C)C)[C@@H](C)CC)C(C)C)C(C)C)C(=O)NCC(=O)NCC(N)=O [compound 188]

- EC50 ([1]; mean of n1 and n2, read-out: Mean pM GLP-1R): 79 pM
- EC50 ([1]; replicate n1, read-out: Primary assay EC50 GLP-1R n1): 120 pM
- EC50 ([1]; replicate n2, read-out: Primary assay EC50 GLP-1R n2): 34 pM
- EC50 ([2]; second replicate (n2), read-out: Primary assay EC50 Gluc-R): ≥ 27 nM
- EC50 ([3]; first replicate, read-out: Primary assay EC50 GIP-R): ≥ 27 nM
- EC50 ([3]; second replicate (n2), read-out: Primary assay EC50 GIP-R): ≥ 27 nM
Compound: CC[C@H](C)[C@H](NC(=O)[C@](C)(Cc1ccccc1)NC(=O)[C@H](CCC(=O)O)NC(=O)[C@](C)(CCCCN)NC(=O)[C@H](C)NC(=O)[C@H](C)NC(=O)[C@H](CCC(=O)O)NC(=O)CNC(=O)[C@H](CCC(=O)O)NC(=O)[C@H](CC(C)C)NC(=O)[C@](C)(Cc1ccccc1)NC(=O)[C@H](CO)NC(=O)[C@](C)(CO)NC(=O)[C@@H](NC(=O)[C@H](CC(=O)O)NC(=O)[C@H](CO)NC(=O)[C@@H](NC(=O)[C@](C)(Cc1ccccc1)NC(=O)[C@H](CO)NC(=O)CNC(=O)[C@H](CCC(=O)O)NC(=O)C(C)(C)NC(=O)[C@@H](N)Cc1c[nH]cn1)[C@@H](C)O)C(C)C)C(=O)N[C@@H](C)C(=O)N[C@@](C)(Cc1ccccc1)C(=O)N[C@H](C(=O)N[C@H](C(=O)N[C@@H](CCCCNC(=O)COCCOCCNC(=O)CCCCCCCCCCCCCCCCC(=O)O)C(=O)NCC(=O)NCC(N)=O)C(C)C)C(C)C [compound 197]

- EC50 ([2]; Table 9, bis-lipidated peptides, first replicate, read-out: Primary assay EC50 Gluc-R (n1)): ≥ 22.8 nM
- EC50 ([2]; Table 9, bis-lipidated peptides, second replicate, read-out: Primary assay EC50 Gluc-R (n2)): ≥ 22.8 nM
- EC50 ([3]; Table 9, bis-lipidated peptides, first replicate, read-out: Primary assay EC50 GIP-R (n1)): ≥ 22.8 nM
- EC50 ([3]; Table 9, bis-lipidated peptides, second replicate, read-out: Primary assay EC50 GIP-R (n2)): ≥ 22.8 nM
Compound: CCCCCCCCCCCC(=O)N[C@@H](CCC(=O)NCCOCCOCC(=O)NCCOCCOCC(=O)NCCCC[C@H](NC(=O)[C@H](C)NC(=O)[C@@H](NC(=O)[C@H](Cc1ccccc1)NC(=O)[C@H](CCC(=O)O)NC(=O)[C@](C)(CCCCN)NC(=O)[C@H](C)NC(=O)[C@H](C)NC(=O)[C@H](CCC(=O)O)NC(=O)CNC(=O)[C@H](CCC(=O)O)NC(=O)[C@H](CC(C)C)NC(=O)[C@H](Cc1ccc(O)cc1)NC(=O)[C@H](CO)NC(=O)[C@H](CO)NC(=O)[C@H](CCCCNC(=O)COCCOCCNC(=O)COCCOCCNC(=O)CC[C@H](NC(=O)CCCCCCCCCCC)C(=O)O)NC(=O)[C@H](CC(=O)O)NC(=O)[C@H](CO)NC(=O)[C@@H](NC(=O)[C@](C)(Cc1ccccc1)NC(=O)[C@H](CO)NC(=O)CNC(=O)[C@H](CCC(=O)O)NC(=O)C(C)(C)NC(=O)[C@@H](N)Cc1c[nH]cn1)[C@@H](C)O)[C@@H](C)CC)C(=O)N[C@H](C(=O)N[C@H](C(=O)N[C@@H](CCC(=O)O)C(=O)NCC(=O)NCC(N)=O)C(C)C)C(C)C)C(=O)O [compound 257] (H-H[Aib]EGS[αMeF]TSDK([AEEA-AEEA-γGlu-Lauroyl])SSYLEGEAA[αMeK]EFIAK([AEEA-AEEA-γGlu-Lauroyl])VVEGG-NH2)

From patent US20210221866A1, “PROTEASE-RESISTANT LIPIDATED GLP-1 ANALOGS” (MEDIMMUNE LIMITED, priority 2015, published 2021)
